The structures appear in SMILES notation.

In this test the target is T1, recombinant guanylate cyclase reporter cell line (Rattus norvegicus, UniProt P19686+P20595).
T1 construct: expressed in transfected cells; host or cells: recombinant reporter cell line
T1 sequence (P19686 1-690): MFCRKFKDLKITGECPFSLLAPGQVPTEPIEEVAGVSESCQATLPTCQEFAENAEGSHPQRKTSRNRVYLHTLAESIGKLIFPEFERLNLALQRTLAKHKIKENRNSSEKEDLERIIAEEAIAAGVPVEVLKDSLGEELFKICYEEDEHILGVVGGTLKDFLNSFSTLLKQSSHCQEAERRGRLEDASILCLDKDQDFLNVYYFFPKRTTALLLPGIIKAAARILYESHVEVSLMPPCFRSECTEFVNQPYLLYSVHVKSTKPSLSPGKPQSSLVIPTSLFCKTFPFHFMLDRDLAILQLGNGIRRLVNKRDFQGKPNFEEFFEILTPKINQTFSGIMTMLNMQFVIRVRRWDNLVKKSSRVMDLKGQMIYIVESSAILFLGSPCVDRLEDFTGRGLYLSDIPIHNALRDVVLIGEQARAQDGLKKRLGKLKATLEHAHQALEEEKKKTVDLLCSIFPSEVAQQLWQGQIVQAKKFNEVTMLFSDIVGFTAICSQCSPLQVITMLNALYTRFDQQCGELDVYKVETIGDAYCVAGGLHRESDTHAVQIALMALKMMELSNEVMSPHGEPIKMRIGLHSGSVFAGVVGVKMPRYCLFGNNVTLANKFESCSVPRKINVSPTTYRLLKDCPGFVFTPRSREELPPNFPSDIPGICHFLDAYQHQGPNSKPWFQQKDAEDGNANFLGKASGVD
T1 sequence (P20595 1-619): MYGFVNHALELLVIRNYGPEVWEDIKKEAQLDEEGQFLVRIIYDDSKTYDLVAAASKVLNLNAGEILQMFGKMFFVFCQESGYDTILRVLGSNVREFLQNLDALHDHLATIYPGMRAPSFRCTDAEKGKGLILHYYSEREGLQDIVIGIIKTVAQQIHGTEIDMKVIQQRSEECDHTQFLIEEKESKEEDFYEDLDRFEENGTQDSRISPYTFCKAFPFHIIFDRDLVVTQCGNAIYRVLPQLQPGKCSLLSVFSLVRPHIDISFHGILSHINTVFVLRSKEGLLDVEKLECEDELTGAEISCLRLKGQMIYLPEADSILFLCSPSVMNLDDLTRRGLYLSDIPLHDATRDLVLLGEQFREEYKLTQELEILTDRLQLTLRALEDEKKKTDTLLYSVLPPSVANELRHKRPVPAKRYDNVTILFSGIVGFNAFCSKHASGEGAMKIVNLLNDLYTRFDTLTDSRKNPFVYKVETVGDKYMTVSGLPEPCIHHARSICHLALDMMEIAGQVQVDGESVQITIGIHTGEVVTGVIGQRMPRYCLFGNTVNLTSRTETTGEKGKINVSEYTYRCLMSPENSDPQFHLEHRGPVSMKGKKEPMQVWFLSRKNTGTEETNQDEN
The test is described as follows: Effect on a recombinant guanylate cyclase reporter cell line. The test is classed as cell-based. As to conditions: MEC = minimum effective concentration; in some cases mean values for individual determinations. On the procedure:
B-2. Effect on a Recombinant Guanylate Cyclase Reporter Cell Line
The cellular effect of the inventive compounds is determined using a recombinant guanylate cyclase reporter cell line, as described in F. Wunder et al., Anal. Biochem. 339, 104-112 (2005).
Representative MEC values (MEC=minimum effective concentration) for the inventive compounds are shown in the table below (in some cases as mean values for individual determinations): […]
`Cc1cc(OCc2ncccc2F)c2nc(C)c(-c3cn[nH]c3)n2c1` [Example 84, 8-[(3-fluoropyridin-2-yl)methoxy]-2,6-dimethyl-3-(1H-pyrazol-4-yl)imidazo[1,2-a]pyridine]: the MEC was 1.0 µM.

Regarding `COC(=O)C1CC1n1cc(-c2c(C)nc3c(OCc4c(F)cccc4F)cc(C)cn23)cn1` (centres unmarked) [Example 106], the MEC turned out to be 0.3 µM.

Regarding `Cc1cc(OCc2c(F)cccc2F)c2nc(C)c(-c3cnn(C(C)CC(=O)O)c3)n2c1` (racemic) [Example 110, rac-3-(4-{8-[(2,6-difluorobenzyl)oxy]-2,6-dimethylimidazo[1,2-a]pyridin-3-yl}-1H-pyrazol-1-yl)butanoic acid], the MEC amounted to 1.0 µM.

For the molecule `CCOC(=O)c1ncc(-c2c(C)nc3c(OCc4c(F)cccc4F)cc(C)cn23)s1` [Example 138, Ethyl 5-{8-[(2,6-difluorobenzyl)oxy]-2,6-dimethylimidazo[1,2-a]pyridin-3-yl}-1,3-thiazole-2-carboxylate], the MEC came to 3.0 µM.

On to `Cc1ccc(-c2c(C)nc3c(OCc4c(F)cccc4F)cc(C)cn23)cc1` [Example 135, 8-[(2,6-Difluorobenzyl)oxy]-2,6-dimethyl-3-(4-methylphenyl)imidazo[1,2-a]pyridine], for which the MEC worked out at 3.0 µM.

Turning to `Cc1nc2c(OCc3c(F)cccc3F)cccn2c1-c1ccc2cn[nH]c2c1` [Example 51], the MEC was determined as 0.3 µM.

As to `CCOCc1nnc(-c2c(C)nc3c(OCC4CCCCC4)cccn23)o1` [Example 66], the MEC was 3.0 µM.

As for `Cc1nc2c(OCc3c(F)cccc3F)cccn2c1-c1cnn(C)c1` [Example 50], the MEC is 0.3 µM.

On to `Cc1nn(C)cc1-c1c(C)nc2c(OCc3c(F)cccc3F)cccn12` [Example 55], for which the MEC was found to be 1.0 µM.

In the case of `Cc1nc2c(OCC3CCCCC3)cccn2c1-c1nnc(C2CCS(=O)(=O)C2)o1` (centres unmarked) [Example 73], the MEC is 3.0 µM.

For `CC(=O)c1cccc(-c2c(C)nc3c(OCc4c(F)cccc4F)cccn23)c1` [Example 2, 1-(3-{8-[(2,6-difluorobenzyl)oxy]-2-methylimidazo[1,2-a]pyridin-3-yl}phenyl)ethanone], the MEC was determined as 0.1 µM.

As for `CCN(CC)CCNC(=O)CC(C)n1cc(-c2c(C)nc3c(OCc4c(F)cccc4F)cc(C)cn23)cn1` (racemic) [Example 112, rac-N-[2-(Diethylamino)ethyl]-3-(4-{8-[(2,6-difluorobenzyl)oxy]-2,6-dimethylimidazo[1,2-a]pyridin-3-yl}-1H-pyrazol-1-yl)butanamide], the MEC came out at 1.0 µM.

As for `Cc1nc2c(OCc3c(F)cccc3F)cccn2c1-c1cccc(Cl)c1` [Example 34, 3-(3-chlorophenyl)-8-[(2,6-difluorobenzyl)oxy]-2-methylimidazo[1,2-a]pyridine], the MEC was 3.0 µM.

Take `Cc1nc2c(OCc3c(F)cccc3F)cccn2c1-c1cccc(N2CCCCC2)c1` [Example 38, 8-[(2,6-difluorobenzyl)oxy]-2-methyl-3-[3-(piperidin-1-yl)phenyl]imidazo[1,2-a]pyridine]: the MEC worked out at 3.0 µM.

Consider `COC(=O)CC(C)n1cc(-c2c(C)nc3c(OCc4c(F)cccc4F)cc(C)cn23)cn1` (centres unmarked) [Example 105], for which the MEC was 0.01 µM.

`Cc1cc(OCc2c(F)cccc2F)c2nc(C)c(-c3cnn(C4CC4C(=O)O)c3)n2c1` (centres unmarked) [Example 111]: the MEC was found to be 1.0 µM.

In the case of `COCCc1nnc(-c2c(C)nc3c(OCC4CCCCC4)cccn23)o1` [Example 68], the MEC amounted to 3.0 µM.

For `Cc1cc(OCc2c(F)cccc2F)c2nc(C)c(-c3cnn(CCO)c3)n2c1` [Example 91, 2-(4-{8-[(2,6-difluorobenzyl)oxy]-2,6-dimethylimidazo[1,2-a]pyridin-3-yl}-1H-pyrazol-1-yl)ethanol], the MEC amounted to 0.1 µM.

`Cc1nc2c(OCc3c(F)cccc3F)cccn2c1-c1cnn(-c2cncc(F)c2)c1` [Example 122]: the MEC worked out at 3.0 µM.

With `Cc1nc(-c2nnc(-c3c(C)nc4c(OCC5CCCCC5)cccn34)o2)cs1` [Example 69], the MEC was determined as 3.0 µM.

`Cc1cc(OCc2c(F)cccc2F)c2nc(C)c(-c3cc(CO)no3)n2c1` [Example 142, (5-{8-[(2,6-Difluorobenzyl)oxy]-2,6-dimethylimidazo[1,2-a]pyridin-3-yl}-1,2-oxazol-3-yl)methanol]: the MEC was 0.1 µM.

Consider `Cc1nc2c(OCc3c(F)cccc3F)cccn2c1-c1cnn(CCN2CCOCC2)c1` [Example 119], for which the MEC was found to be 0.1 µM.

With `Cc1cc(OCc2c(F)cccc2F)c2nc(C)c(-c3cnn(CCN4CCOCC4)c3)n2c1` [Example 118, 8-[(2,6-Difluorobenzyl)oxy]-2,6-dimethyl-3-{1-[2-(morpholin-4-yl)ethyl]-1H-pyrazol-4-yl}imidazo[1,2-a]pyridine], the MEC was determined as 0.03 µM.

As for `CCS(=O)(=O)c1cccc(-c2c(C)nc3c(OCc4c(F)cccc4F)cccn23)c1` [Example 6, 8-[(2,6-difluorobenzyl)oxy]-3-[3-(ethylsulphonyl)phenyl]-2-methylimidazo[1,2-a]pyridine], the MEC worked out at 0.1 µM.

As for `Cc1nc2c(OCc3c(F)cccc3F)cccn2c1-c1cccc(S(C)(=O)=O)c1` [Example 46], the MEC amounted to 0.2 µM.

In the case of `COc1ccc(-c2c(C)nc3c(OCc4c(F)cccc4F)cccn23)cc1CN1CCOCC1` [Example 41, 8-[(2,6-difluorobenzyl)oxy]-3-[4-methoxy-3-(morpholin-4-ylmethyl)phenyl]-2-methylimidazo[1,2-a]pyridine], the MEC is 3.0 µM.

For `Cc1cc(OCc2c(F)cccc2F)c2nc(C)c(-c3cnn(CC(N)=O)c3)n2c1` [Example 115, 2-(4-{8-[(2,6-Difluorobenzyl)oxy]-2,6-dimethylimidazo[1,2-a]pyridin-3-yl}-1H-pyrazol-1-yl)acetamide], the MEC was 0.1 µM.

For `Cc1cc(OCc2c(F)cccc2F)c2nc(C)c(-c3nnc(CC(C)(C)N)s3)n2c1.O=CO` [Example 133, 1-(5-{8-[(2,6-Difluorobenzyl)oxy]-2,6-dimethylimidazo[1,2-a]pyridin-3-yl}-1,3,4-thiadiazol-2-yl)-2-methylpropan-2-amine formate], the MEC was found to be 0.3 µM.

In the case of `Cc1cc(OCc2c(F)cccc2F)c2nc(C)c(-c3n[nH]c(C(F)(F)F)n3)n2c1` [Example 126, 8-[(2,6-Difluorobenzyl)oxy]-2,6-dimethyl-3-[5-(trifluoromethyl)-1H-1,2,4-triazol-3-yl]imidazo[1,2-a]pyridine], the MEC came to 3.0 µM.

As for `CCOc1ccc(-c2c(C)nc3c(OCc4c(F)cccc4F)cccn23)cc1` [Example 10, 8-[(2,6-difluorobenzyl)oxy]-3-(4-ethoxyphenyl)-2-methylimidazo[1,2-a]pyridine], the MEC is 1.0 µM.

As to `Cc1cc(OCc2c(F)cccc2F)c2nc(C)c(-c3noc(CC(C)(C)N)n3)n2c1` [Example 131, 1-(3-{8-[(2,6-Difluorobenzyl)oxy]-2,6-dimethylimidazo[1,2-a]pyridin-3-yl}-1,2,4-oxadiazol-5-yl)-2-methylpropan-2-amine], the MEC was determined as 1.0 µM.

Take `Cc1nc2c(OCc3c(F)cccc3F)cccn2c1-c1ccc(CN2CCOCC2)c(F)c1` [Example 39, 8-[(2,6-difluorobenzyl)oxy]-3-[3-fluoro-4-(morpholin-4-ylmethyl)phenyl]-2-methylimidazo[1,2-a]pyridine]: the MEC was determined as 3.0 µM.

The values above are taken from patent US9776997B2, “3-aryl-substituted imidazo[1,2-A]pyridines and their use” (Bayer Pharma Aktiengesellschaft, priority 2013, dated 2017).
